Assay results reported in EPA's ToxValDB 9.5 (doi:10.2903/j.efsa.2009.333r).
Converted amounts (≈) assume the structure as drawn.

What was measured:
Colinus virginianus = conditions: for LD50: acute, oral, mortality
Aphidius rhopalosiphi = experiment: LR50; higher = less toxic; conditions: acute; duration: 48 hours; mortality
Homo sapiens = conditions: clinical; oral; M/F; clinical chemistry
Apis mellifera = conditions: acute; duration: 48 hours; dermal; mortality
Oncorhynchus mykiss = conditions: chronic/long-term; duration: 97 days; growth
Rattus norvegicus = conditions: for NOAEL: clinical chemistry
Gasterosteus aculeatus = conditions: acute; duration: 96 hours; mortality
Tagia sp. = conditions: acute; duration: 14 days; mortality
Oryctolagus sp. = conditions: developmental; development
Daphnia magna = conditions: chronic/long-term; duration: 21 days; reproduction

| SMILES | LD50 (Colinus virginianus; diet) | LD50 (Colinus virginianus) [mg/kg] | LR50 (Aphidius rhopalosiphi) [g/ha] | NOAEL (Homo sapiens) [mg/kg-day] | LD50 (Apis mellifera) [µg/piece] | NOEC (Oncorhynchus mykiss) [mg/L] | LD50 (Rattus norvegicus; acute, oral, F, mortality) [mg/kg] | NOAEL (Rattus norvegicus; chronic, duration: 2 years) [mg/kg-day] | NOAEL (Rattus norvegicus; subchronic, duration: 90 days, oral) [mg/kg-day] | LC50 (Gasterosteus aculeatus) [µg/mL] | LC50 (Tagia sp.) [mg/kg] | NOAEL (Oryctolagus sp.) [mg/kg-day] | NOEC (Colinus virginianus; reproduction developmental) [mg/kg-day] | NOEC (Daphnia magna) [mg/L] |
| --- | --- | --- | --- | --- | --- | --- | --- | --- | --- | --- | --- | --- | --- | --- |
| CCOC(=O)CC(SP(=O)(OC)OC)C(=O)OCC (stereo unspecified) [Malaoxon] | 334 mg/kg | 43 |  |  |  |  |  |  |  |  |  |  |  |  |
| CCOC(=O)CC(SP(=S)(OC)OC)C(=O)OCC (stereo unspecified) [Malathion] | 554 mg/kg-day | 359 | 0.0612 | > 15 | 0.16 | 0.021 | 1780 | 29 | 34.4 | 0.022 (≈ 0.0666 µM) | 613 | 25 | 13.5 | 6e-05 |
